In patent publication US7829669B2, “Catalytically active recombinant memapsin and methods of use thereof” (Oklahoma Medical Research Foundation, priority 1999, dated 2010):

Tests used:
[1] = system: APP cleavage by M2 in HeLa cells; test: APP cleavage in HeLa cells co-transfected with APP and M2, pulse-chase and immunoprecipitation; assay type: cell-based, human; details: Bafilomycin A1 in the media
M2pd = target: T1, M2pd (Homo sapiens, UniProt P56817); test: Hydrolysis of synthetic peptide substrates by M2pd, kinetics by HPLC; assay type: biochemical
T1 construct: Pro-memapsin 2 residues start at residue Ala-16; The two recombinant pro-memapsin 2s have different C-terminal lengths; Clone T1 ends at Thr-456; made in house
T1 sequence (P56817 14-454): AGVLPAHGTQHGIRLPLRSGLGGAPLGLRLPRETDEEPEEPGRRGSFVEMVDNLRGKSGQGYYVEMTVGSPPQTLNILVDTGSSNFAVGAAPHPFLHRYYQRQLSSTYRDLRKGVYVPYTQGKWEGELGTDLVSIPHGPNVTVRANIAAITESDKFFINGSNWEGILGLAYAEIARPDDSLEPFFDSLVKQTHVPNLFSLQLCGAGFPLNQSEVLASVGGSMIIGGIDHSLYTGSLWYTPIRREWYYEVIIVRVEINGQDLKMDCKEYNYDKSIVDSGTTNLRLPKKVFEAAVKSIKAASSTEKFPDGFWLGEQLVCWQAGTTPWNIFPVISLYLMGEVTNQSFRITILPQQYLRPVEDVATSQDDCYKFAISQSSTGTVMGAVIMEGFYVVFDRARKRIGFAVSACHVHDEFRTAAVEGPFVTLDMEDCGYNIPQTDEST
Description: A synthetic peptide derived from this site (SEVKM/DAEFR) (SEQ ID NO:4) was hydrolyzed by M2pd at the beta-secretase site (marked by /). A second peptide (SEVNL/DAEFR) (SEQ ID NO:5) derived from the APP beta-secretase site and containing the ‘Swedish mutation’ (Mullan, M. et al., Nature Genet. 2:340-342 (1992)), known to elevate the level of alpha-beta production in cells (Citron, M. et al., Nature […] (1992)), was hydrolyzed by M2pd with much higher catalytic efficiency. Both substrates were optimally cleaved at pH 4.0. A peptide derived from the processing site of presenilin 1 (SVNM/AEGD) (SEQ ID NO:6) was also cleaved by M2pd with less efficient kinetic parameters. […]
Incubation in 0.1 M sodium acetate, pH 4.0, for 16 h at 22° C. auto-catalytically converted pro-M2pd to M2pd. […] For kinetic studies, the identified HPLC (Beckman System Gold) product peaks were integrated for quantitation. The Km and kcat values for presenilin 1 and Swedish APP peptides (Table 1) were measured by steady-state kinetics. The individual Km and kcat values for APP peptide could not be measured accurately by standard methods, so its kcat/Km value was measured by competitive hydrolysis of mixed substrates against presenilin 1 peptide (Fersht, A. “Enzyme Structure and Mechanism”, 2nd Ed., W.H. Freeman and Company, New York. (1985)).

Compound	production of APP fragments beta N- and beta C- [1]	cleavage by M2pd (M2pd)
CO/C1=C\C(C)=C\[C@@H](C)[C@@H](O)[C@@H](C)C/C(C)=C/C=C/[C@H](OC)[C@@H]([C@@H](C)[C@@H](O)[C@H](C)[C@@]2(O)C[C@@H](O)[C@H](C)[C@@H](C(C)C)O2)OC1=O [Bafilomycin A1]	abolished the production of both APP fragments	
KGGVVIATVIVK		not cleaved
